Source: US6914045B2, “Glycopeptide antibiotics” (Wyeth Holdings Corporation, priority 2001, dated 2005)
Converted amounts (≈) assume the structure as drawn.

Key:
Assay in all cases: in vitro antibacterial evaluation, MIC by broth dilution
Type in all cases: cell-based
[1] = tested on: Streptococcus sp.; conditions: broth dilution, 18 hours at 35° C.
How it was run: (§1)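 MIC, the lowest antibiotic concentration preventing growth, was read across 64-0.06 μg/mL with 5×10^5 CFU/mL inoculum. Method followed NCCLS M7-A2 broth dilution using Mueller-Hinton II; Gram-positive strains covered recent methicillin-, penicillin- and/or vancomycin-resistant clinical isolates.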

[2] = tested on: Enterococcus sp.; conditions: broth dilution, 18 hours at 35° C.
How it was run: as §1

[3] = tested on: Staphylococcus sp.; conditions: broth dilution, 18 hours at 35° C.
How it was run: as §1

[4] = tested on: Escherichia coli
How it was run: as §1

MIC Streptococcus agalactiae (GC 4564) ([1]; Streptococcus agalactiae (GC 4564)): <0.12 mg/L
MIC Streptococcus pyogenes (GC 4563) ([1]; Streptococcus pyogenes (GC 4563)): >0.12 mg/L
MIC Streptococcus pyogenes (ID-3187) ([1]; Streptococcus pyogenes (ID-3187)): <0.5 mg/L
MIC Streptococcus pyogenes (GC 4563) ([1]; strain GC 4563): >0.12 mg/L
MIC Streptococcus agalactiae (GC 4564) ([1]; strain GC 4564): <0.12 mg/L
MIC Streptococcus pyogenes (ID-3187) ([1]; strain ID-3187): <0.5 mg/L
MIC Enterococcus avium (GC 4558) ([2]; Enterococcus avium (GC 4558)): 0.5 to 2 mg/L
MIC Enterococcus faecalis (ATCC 29212) ([2]; Enterococcus faecalis (ATCC 29212)): 0.5 to 2 mg/L
MIC Enterococcus faecalis (GC 2242) ([2]; Enterococcus faecalis (GC 2242)): 0.5 to 1 mg/L
MIC Enterococcus faecalis (GC 2691) ([2]; Enterococcus faecalis (GC 2691)): 0.5 mg/L (≈ 0.347 µM)
MIC Enterococcus faecalis (GC 3059) ([2]; Enterococcus faecalis (GC 3059)): 0.5 mg/L (≈ 0.347 µM)
MIC Enterococcus faecalis (GC 4552) ([2]; Enterococcus faecalis (GC 4552)): 0.5 to 1 mg/L
MIC Enterococcus faecalis (GC 4553) ([2]; Enterococcus faecalis (GC 4553)): 0.5 to 1 mg/L
MIC Enterococcus faecalis (GC 4554) ([2]; Enterococcus faecalis (GC 4554)): 0.5 to 1 mg/L
MIC Enterococcus faecalis (GC 6189) ([2]; Enterococcus faecalis (GC 6189)): 0.5 mg/L (≈ 0.347 µM)
MIC Enterococcus faecium (GC 2243) ([2]; Enterococcus faecium (GC 2243)): 1 to 2 mg/L
MIC Enterococcus faecium (GC 4556) ([2]; Enterococcus faecium (GC 4556)): 2 mg/L (≈ 1.39 µM)
MIC Enterococcus faecium (GC 4557) ([2]; Enterococcus faecium (GC 4557)): 1 to 2 mg/L
MIC Enterococcus faecalis (ATCC 29212) ([2]; strain ATCC 29212): 0.5 to 2 mg/L
MIC Enterococcus faecalis (GC 2242) ([2]; strain GC 2242): 0.5 to 1 mg/L
MIC Enterococcus faecium (GC 2243) ([2]; strain GC 2243): 1 to 2 mg/L
MIC Enterococcus faecalis (GC 2691) ([2]; strain GC 2691): 0.5 mg/L (≈ 0.347 µM)
MIC Enterococcus faecalis (GC 3059) ([2]; strain GC 3059): 0.5 mg/L (≈ 0.347 µM)
MIC Enterococcus faecalis (GC 4552) ([2]; strain GC 4552): 0.5 to 1 mg/L
MIC Enterococcus faecalis (GC 4553) ([2]; strain GC 4553): 0.5 to 1 mg/L
MIC Enterococcus faecalis (GC 4554) ([2]; strain GC 4554): 0.5 to 1 mg/L
MIC Enterococcus faecium (GC 4556) ([2]; strain GC 4556): 2 mg/L (≈ 1.39 µM)
MIC Enterococcus faecium (GC 4557) ([2]; strain GC 4557): 1 to 2 mg/L
MIC Enterococcus avium (GC 4558) ([2]; strain GC 4558): 0.5 to 2 mg/L
MIC Enterococcus faecalis (GC 6189) ([2]; strain GC 6189): 0.5 mg/L (≈ 0.347 µM)
MIC Staphylococcus aureus (GC 3051) ([3]; strain GC 3051): 0.5 mg/L (≈ 0.347 µM)
MIC Staphylococcus aureus (GC 3053) ([3]; strain GC 3053): 0.5 mg/L (≈ 0.347 µM)
MIC Staphylococcus aureus (GC 4542) ([3]; strain GC 4542): 0.5 to 1 mg/L
MIC Staphylococcus aureus-SMITH (GC 4543) ([3]; strain GC 4543): 0.5 to 1 mg/L
MIC Staphylococcus aureus (GC 4544) ([3]; strain GC 4544): 0.5 to 1 mg/L
MIC Staphylococcus aureus (GC 4545) ([3]; strain GC 4545): 0.5 to 1 mg/L
MIC Coagulase Negative Staphylococcus (GC 4547) ([3]; strain GC 4547): 1 to 2 mg/L
MIC Coagulase Negative Staphylococcus (GC 4548) ([3]; strain GC 4548): <0.5 to 1 mg/L
MIC Coagulase Negative Staphylococcus (GC 4549) ([3]; strain GC 4549): <0.5 to 1 mg/L
MIC Coagulase Negative Staphylococcus (GC 4551) ([3]; strain GC 4551): 1 mg/L (≈ 0.695 µM)
MIC Coagulase Negative Staphylococcus (GC 6257) ([3]; strain GC 6257): 2 mg/L (≈ 1.39 µM)
MIC Coagulase Negative Staphylococcus (ID-3941) ([3]; strain ID-3941): 1 mg/L (≈ 0.695 µM)
MIC Staphylococcus aureus-SMITH (GC 4543) ([3]; strain SMITH GC 4543): 0.5 to 1 mg/L
MIC Escherichia coli (ATCC 25922) ([4]; strain ATCC 25922, 18 hours at 35° C.): 64-64 μg/mL
MIC Escherichia coli (GC 4559) ([4]; strain GC 4559, 18 hours at 35° C.): 64 mg/L (≈ 44.5 µM)
MIC Escherichia coli (GC 4560) ([4]; strain GC 4560, 18 hours at 35° C.): 0.5 to 2 mg/L
SMILES: CC(c1ccccc1)C1NC(=O)CNC(=O)C(CO)NC(=O)C(C(O)C2CNC(=N)N2C2OC(CO)C(O)C(O)C2O)NC(=O)C(C(O)C2CNC(=N)N2)NC(=O)C(Cc2ccc(OC3OC(CO)C(OC4OC5COC(c6ccc(C(C)(C)C)cc6)OC5C(O)C4O)C(O)C3O)cc2)NC1=O (centres unmarked) [Example 147]
MIC Staphylococcus haemolyticus (GC 4546) ([3]; strain GC 4546): 1 to 2 mg/L
